Reference: patent US5382596A, “Substituted 2-aminotetralins” (priority 1993, dated 1995)
Counter-ions that a name gives are not always drawn. Like-named read-outs stand apart in the source and are kept apart here.

How the values were obtained:
Dopamine D2 receptor [1] = target: Dopamine D2 receptor (Bos taurus, UniProt P20288); experiment: biochemical; format: binding, bovine
Procedure: (§1) Membranes were prepared using a Brinkmann Polytron and collected by centrifugation. Membrane sources were bovine caudate (D2,D1) or rat cortex (α2). The membranes were washed, resuspended, and incubated at 37° C. for 30 min. in either the presence (rat cortex) of 1 μ/ml adenosine deaminase or absence (bovine caudate) of 0.1 μ/ml adenosine deaminase. Membranes were centrifuged, washed once and frozen at -70° C. until used. Immediately before use, the membranes were thawed, washed once, and resuspended to a final concentration of 0.5-2 mg/ml. Assays were initiated by addition of membranes. For D2 and D1 assays, the radioligands and conditions used were ^3 H-Spiperone (RT, 75 min.) and ^3 H-SCH23390 (37° C., 15 min.), respectively. For α2 assays, ^3 H-PAC (RT, 30 min.) was used Assays were terminated by filtration using a Brandel cell harvester over Whatman GF/B filters that had been pretreated with 0.1% polyethylenimine. […]

Dopamine D1 receptor = Dopamine D1 receptor (Bos taurus, UniProt Q95136); experiment: biochemical; format: binding, bovine
Procedure: as §1

dopamine D2 receptor [2] = target: dopamine D2 receptor (Mus musculus, UniProt P61168); experiment: biochemical; format: biochemical
Procedure: Vasa deferentia from male BALB/C mice weighing approximately 30 g were removed and placed in isolated organ baths containing magnesium-free modified Krebs-Henseleit solution which was gassed with 95% O2 and 5% CO2 and maintained at 37° C. Tissues were set up under resting tension of 0.5 g and stimulated electrically at 60 volts, 0.1 Hz and 1 msec duration to produce a series of twitch responses. Tissues were pretreated with propranolol (1 μM) to block β-adrenoceptors, idazoxan (3 μM) to block α2 -adrenoceptors receptors, and ascorbic acid (100 μM) for 60 min before the addition of test compound.

[3] = tested on: denervated supersensitive postsynaptic dopamine receptors; experiment: In vivo functional test: contralateral circling in rats with unilateral 6-hydroxydopamine lesions of the substantia nigra; set-up: species or system rat; details: for ED50: contralateral circling, rats, unilateral 6-hydroxydopamine lesion
Excerpt: Dopamine agonists produce contralateral circling behavior in rats in which unilateral lesions of the substantial nigra are made by prior injection of 6-hydroxydopamine. The circling is thought to be mediated by stimulation of denervated supersensitive postsynaptic dopamine receptors (Marshall and Ungerstedt, 1977, Eur. J. Pharmacol., 41:361-367).

adrenergic α2 receptor = target: T1, adrenergic α2 receptor (Rattus norvegicus, UniProt P22909); experiment: Adrenergic α2 in vitro functional test (rat vas deferens, inhibition of twitch); format: biochemical
T1 sequence (P22909 1-465): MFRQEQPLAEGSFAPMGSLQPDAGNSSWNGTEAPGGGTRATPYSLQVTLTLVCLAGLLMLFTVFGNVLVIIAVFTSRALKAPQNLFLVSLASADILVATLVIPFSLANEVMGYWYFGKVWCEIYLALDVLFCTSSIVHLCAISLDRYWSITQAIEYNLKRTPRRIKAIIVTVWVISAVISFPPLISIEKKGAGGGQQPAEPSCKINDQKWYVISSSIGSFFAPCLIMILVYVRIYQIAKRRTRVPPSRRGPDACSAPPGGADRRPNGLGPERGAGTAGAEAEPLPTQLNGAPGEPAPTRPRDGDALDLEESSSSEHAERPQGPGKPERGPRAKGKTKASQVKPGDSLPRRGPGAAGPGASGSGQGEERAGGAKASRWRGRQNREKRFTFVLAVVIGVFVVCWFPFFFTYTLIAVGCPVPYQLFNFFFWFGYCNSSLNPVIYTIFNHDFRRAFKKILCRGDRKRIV
Procedure: Vasa deferentia from male Sprague-Dawley rats weighing between 150-250 g were removed and placed in isolated organ baths containing Krebs-Henseleitsolution under a resting tension of 1 g. All other set up conditions were identical to those used for the mouse was deferens. Tissues were pretreated with propranolol (1 μM), ascorbic acid (100 μM) and the α1 -adrenergic antagonist prazosin (0.3 or 1 μM) for 60 min before the addition of test compound.

[4] = bovine caudate membranes, 3H-Spiperone, RT, 75 min, read-out: D2 K1
[5] = bovine caudate membranes, 3H-SCH23390, 37° C., 15 min, read-out: D1 K1
[6] = concentration that produces 50% of the maximal inhibition of twitch, mouse vas deferens, read-out: D2 A50
[7] = concentration that produces 50% of the maximal inhibition of twitch, rat vas deferens, read-out: a2 A50

Chain of dopamine D2 receptor (P61168 whole entry): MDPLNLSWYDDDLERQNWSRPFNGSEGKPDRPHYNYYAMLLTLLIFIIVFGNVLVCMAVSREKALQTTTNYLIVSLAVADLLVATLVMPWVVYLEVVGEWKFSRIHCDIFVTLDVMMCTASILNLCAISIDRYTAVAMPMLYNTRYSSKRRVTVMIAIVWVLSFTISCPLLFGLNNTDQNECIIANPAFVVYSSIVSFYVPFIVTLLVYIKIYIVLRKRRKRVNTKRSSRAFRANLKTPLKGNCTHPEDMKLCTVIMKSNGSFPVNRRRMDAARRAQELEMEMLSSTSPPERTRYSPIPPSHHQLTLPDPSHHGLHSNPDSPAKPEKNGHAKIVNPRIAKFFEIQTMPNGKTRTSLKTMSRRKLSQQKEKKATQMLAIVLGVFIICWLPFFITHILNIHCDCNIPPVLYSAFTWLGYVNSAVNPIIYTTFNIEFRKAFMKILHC
Chain of Dopamine D2 receptor (P20288 whole entry): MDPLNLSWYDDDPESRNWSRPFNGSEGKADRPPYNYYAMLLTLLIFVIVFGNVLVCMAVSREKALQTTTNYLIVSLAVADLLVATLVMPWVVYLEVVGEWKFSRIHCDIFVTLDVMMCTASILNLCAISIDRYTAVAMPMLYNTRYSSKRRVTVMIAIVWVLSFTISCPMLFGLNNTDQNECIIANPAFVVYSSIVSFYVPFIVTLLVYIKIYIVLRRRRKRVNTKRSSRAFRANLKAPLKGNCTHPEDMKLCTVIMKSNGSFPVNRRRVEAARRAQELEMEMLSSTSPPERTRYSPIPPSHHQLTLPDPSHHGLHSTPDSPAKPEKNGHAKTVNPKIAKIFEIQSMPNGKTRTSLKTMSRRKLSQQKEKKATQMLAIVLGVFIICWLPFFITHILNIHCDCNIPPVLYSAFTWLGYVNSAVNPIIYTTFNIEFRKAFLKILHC
Chain of Dopamine D1 receptor (Q95136 whole entry): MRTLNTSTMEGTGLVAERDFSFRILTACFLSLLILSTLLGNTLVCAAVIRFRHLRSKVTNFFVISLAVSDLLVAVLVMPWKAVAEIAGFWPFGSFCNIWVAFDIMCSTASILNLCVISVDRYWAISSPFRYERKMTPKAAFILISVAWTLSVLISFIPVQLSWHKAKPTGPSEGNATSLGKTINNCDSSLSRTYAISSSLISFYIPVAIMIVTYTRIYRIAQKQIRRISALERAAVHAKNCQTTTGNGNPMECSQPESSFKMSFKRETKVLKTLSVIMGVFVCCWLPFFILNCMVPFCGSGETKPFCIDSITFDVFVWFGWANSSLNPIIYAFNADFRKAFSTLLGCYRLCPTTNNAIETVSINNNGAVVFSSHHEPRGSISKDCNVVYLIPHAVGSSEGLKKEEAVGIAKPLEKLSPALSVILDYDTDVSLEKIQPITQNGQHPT

Compound	Selectivity Ratio (D1 K1/D2 K1) (Dopamine D2 receptor [1])	Ki (Dopamine D2 receptor [1]; [4])	Ki (Dopamine D1 receptor; [5])	Specificity Ratio (a2 A50/D2 A50) (dopamine D2 receptor [2])	EC50 (dopamine D2 receptor [2]; [6])	ED50 [3]	EC50 (adrenergic α2 receptor; [7])	further results
CCCN(CCC1CCCO1)[C@H]1CCc2c(O)cccc2C1 (stereo partly drawn) [Example 19]	14	110 nM	1510 nM	6310	0.275 nM	0.020 µmol/kg	1740 nM	
CCCN(CCC1CCOC1)[C@H]1CCc2c(ccc(O)c2O)C1 (stereo partly drawn) [Example 14]	34	195 nM	6610 nM	71	0.209 nM	0.030 µmol/kg	14.8 nM	
CCCN(CCC1CCOC1)[C@H]1CCc2c(O)cccc2C1 (stereo partly drawn) [Example 24]	21	263 nM	5620 nM	158	0.776 nM	0.020 µmol/kg	123 nM	
CCCN(CCOC1CCCC1)[C@H]1CCc2c(ccc(O)c2O)C1 [Example 6]	98	51 nM	5010 nM	537	0.162 nM	0.008 µmol/kg	87.1 nM	
CCN(CCC1CCCO1)[C@H]1CCc2c(O)cccc2C1 (stereo partly drawn) [Example 25]	57	117 nM	6610 nM	> 14100	0.708 nM		> 10000 nM	
CCCN(CCOC(C)C)[C@H]1CCc2c(ccc(O)c2O)C1.Cl [Example 1, (S)-5,6,7,8-Tetrahydro-6-[[2-(1-methylethoxy)ethyl]-propylamino]-1,2-naphthalenediol, hydrochloride]	112	65 nM	7240 nM	1480	0.148 nM	0.004 µmol/kg	218 nM	
CCCN(CC1CCCCO1)[C@H]1CCc2c(O)cccc2C1 (stereo partly drawn) [Example 20]	7	1070 nM	7080 nM	191	1 nM	0.030 µmol/kg	190 nM	
CCCN(CCC)C1CCc2c(O)cccc2C1 (stereo not drawn) [Example 39, 5-hydroxy-2-(di-n-propyl)aminotetralin, reference compound]	5			120		0.010 µmol/kg		Ki (Dopamine D2 receptor [1]): 790 nM; Ki (Dopamine D1 receptor): 3800 nM; EC50 (dopamine D2 receptor [2]): 2.14 nM; EC50 (adrenergic α2 receptor): 257 nM
CCCN(CCCOC)[C@H]1CCc2c(O)cccc2C1 [Example 41, (S)-5,6,7,8-tetrahydro-6-[(3-methoxypropyl)propylamino]-l-naphthalenol, reference compound]	14	790 nM	11000 nM	257	0.91 nM	0.020 µmol/kg	234 nM	
CCCN(CCOC(C)CC)[C@H]1CCc2c(ccc(O)c2O)C1 (stereo partly drawn) [Example 5]	40	115 nM	4570 nM	1020	0.24 nM	0.006 µmol/kg	245 nM	
CCCN(CCC1CCCO1)[C@H]1CCc2c(ccc(O)c2O)C1 (stereo partly drawn) [Example 11]	141	30 nM	4270 nM	62	1.29 nM	0.010 µmol/kg	79.4 nM	
CCCN(CCOC1CCC1)[C@H]1CCc2c(O)cccc2C1 [Example 18]	45	200 nM	8910 nM	> 14800	0.676 nM	0.020 µmol/kg	> 10000 nM	
CCCN(CCOC(C)(C)C)[C@H]1CCc2c(ccc(O)c2O)C1 [Example 9, (S)-6-[[2-(1,1-dimethylethoxy)ethyl]propylamino]-5,6,7,8-tetrahydro-1,2-naphthalenediol]	166	54 nM	8910 nM	1620	0.089 nM	0.004 µmol/kg	144 nM	dopamine D2 receptor affinity (in words) (Dopamine D2 receptor [1]): high affinity; D2 receptor selectivity (in words) (Dopamine D2 receptor [1]; D2 vs. D1): high affinity, selectivity; dopamine D2 receptor in vitro functional activity/potency (in words) (dopamine D2 receptor [2]): high affinity, selectivity, specificity, and functional potency; D2 receptor specificity (in words) (dopamine D2 receptor [2]; D2 vs. α2): high affinity, selectivity, specificity; in vivo functional potency (in words) ([3]; rat, in vivo): high in vivo functional potency
CCCN(CCOCC)[C@H]1CCc2c(ccc3c2OCO3)C1 [Example 27]						0.100 µmol/kg		
CCCN(CCOC(C)C)[C@H]1CCc2c(ccc3oc(=O)oc23)C1 [Example 38, (S)-5,6,7,8-Tetrahydro-6-[[2-(1-methylethoxy)ethyl]-propylamino]-1,2-naphthalenediol, cyclic carbonate, hydrochloride]						0.005 µmol/kg		
CCCN(CCC)[C@H]1CCc2c(ccc(O)c2O)C1 [Example 40, (S)-5,6-dihydroxy-2-(di-n-propyl)aminotetralin, reference compound]						0.009 µmol/kg		EC50 (adrenergic α2 receptor): 12.5 nM
CCCN(CCOC(C)C)[C@H]1CCc2c(ccc3c2OCO3)C1.Cl [Example 26, (S)-6,7,8,9-Tetrahydro-N-[2-(1-methylethoxy)ethyl]-N-propylnaphtho[1,2-d]-1,3-dioxol-7-amine, hydrochloride]						0.030 µmol/kg		
CCCOCCN(CCC)[C@H]1CCc2c(ccc3c2OCO3)C1 [Example 28]						0.100 µmol/kg		
CCCN(CCOC(C)(C)C)[C@H]1CCc2c(ccc3c2OCO3)C1 [Example 29]						0.040 µmol/kg		
